Results on 1 molecule are retold here after patent US20200345662A1, “MUSCULAR ATROPHY-INDUCING AGENT USING HYPOMETABOLISM-INDUCING SUBSTANCE T1AM, AND USE THEREOF IN TREATING MUSCULAR HYPERTROPHY” (UNIVERSITY INDUSTRY FOUNDATION, YONSEI […] CAMPUS, priority 2015, published 2020).

One test deals with FoxO1. Kind of test: Immunoblotting analysis of p-FoxO1 and FoxO1 in C2C12 myotubes. It counts as cell-based. To be noted: T1AM-treated group vs control. The method, then:
(§1) C2C12 myoblasts were purchased from American Type Culture Collection (Rockville, Md., USA) and cultured in a DMEM medium containing 4,500 mg/L glucose supplemented with 10% fetal bovine serum (Hyclone, Logan, Utah, USA) and 1% antibiotics/antimycotics Gibco, Burlington, Ontario, Canada). The myoblasts were stored under conditions of 37° C. and 5% CO2. The myoblasts were grown on a 6-well culture plate for immunoblot analysis and measurement of diameters of myotubes. The myoblasts were maintained in each well for 5 days by replacing the medium with a differentiation medium (DMEM containing 2% horse serum and 1% antibiotics/antimycotics) at about 80% confluent state and induced to be differentiated into myotubes. The medium was replaced with a new medium every two days.
(§2) The cells were obtained with a RIPA buffer, degraded by repeated suction through a 21 gauge needle, and the transferred to a 1.5 mL microtube. A sample was cultured on ice for 5 minutes and centrifuged at 13,000 rpm at 4° C. for 10 minutes. A supernatant was obtained with whole-cell soluble lysates and the protein concentration was determined through Bradford assay. To detect AMPK, phospho-AMPK (p-AMPK), FoxO1, p-FoxO1, FoxO3, p-FoxO3, Akt1, p-Akt1, S6K, p-S6K, MuRF1, MAFbx, HSP90, HSP72, HSP60, HSP27, αB-crystallin, and GAPDH, a total of 30 μg of proteins was electrophoresed on 8 to 10% SDS-PAGE.
(§3) The proteins were electrophoretically transferred from the gel to a nitrocellulose membrane. The membrane reacted with a blocking buffer (1X TBS, 0.5% Tween-20 with 5% w/v nonfat dry milk) for 1 hour at room temperature and then washed with 10 mL TBST three times every 10 minutes. […] An immunocomplex was detected by the ECL system (GE Healthcare, Fairfield, Conn., USA) and the obtained bands were quantified by ImageJ 1.47t software (NIH, MD, USA). […]
(§4) The cells on each 6-well plate were washed three times with 1× PBS and fixed with 4% paraformaldehyde for 30 minutes at room temperature. […] Fluorescent-labeled cells were detected with a Carl Zeiss LSM750 confocal microscope (Jena, Germany).

The subject of test [1] is heat shock protein 72 (HSP72). Kind of test: Immunoblotting analysis of HSP72 in C2C12 myotubes. Particulars: T1AM-treated group vs control. The test is classed as cell-based. Here is the method:
as §1
(§5) The cells were obtained with a RIPA buffer, degraded by repeated suction through a 21 gauge needle, and the transferred to a 1.5 mL microtube. A sample was cultured on ice for 5 minutes and centrifuged at 13,000 rpm at 4° C. for 10 minutes. A supernatant was obtained with whole-cell soluble lysates and the protein concentration was determined through Bradford assay. […]
(§6) The proteins were electrophoretically transferred from the gel to a nitrocellulose membrane. […] An immunocomplex was detected by the ECL system (GE Healthcare, Fairfield, Conn., USA) and the obtained bands were quantified by ImageJ 1.47t software (NIH, MD, USA). […]
(In general: A western blot detects proteins with antibodies after separation by electrophoresis.)

The subject of the next test is AMPK. Kind of test: Immunoblotting analysis of p-AMPK and AMPK in C2C12 myotubes. It counts as cell-based. To be noted: T1AM-treated group vs control. The method, then:
as §1, §2
(§7) The proteins were electrophoretically transferred from the gel to a nitrocellulose membrane. The membrane reacted with a blocking buffer (1X TBS, 0.5% Tween-20 with 5% w/v nonfat dry milk) for 1 hour at room temperature and then washed with 10 mL TBST three times every 10 minutes. Thereafter, the membranes reacted with a primary antibody diluted appropriately with 10 mL TBST (1:500 to 1:10,000) overnight at 4° C. […] An immunocomplex was detected by the ECL system (GE Healthcare, Fairfield, Conn., USA) and the obtained bands were quantified by ImageJ 1.47t software (NIH, MD, USA). […]

Another test relates to 26S proteasome. Kind of test: Chymotrypsin-like activity of 26S proteasome, cell-based luminescence assay. To be noted: C2C12 myotubes, T1AM-treated group vs control. The method, then: Two groups of myotubes were trypsinized and then washed with a fresh differentiation medium. Among three determinants of proteasome activities (trypsin-, chemotrypsin- and caspase-like activities), the chemotrypsin-like activity is regarded as representative of the protease capacity of the proteasome. The chemotrypsin-like activity was determined according to the manufacturer's protocol using a Promega Proteasome-Glo cell-based luminescence assay kit (Promega, Madison, Wis., USA) by approximately 7,500 cells measured by a cell counter (Biorad, Hercules, Calif., USA) in 50 μl of the differentiation medium. To confirm the specificity of the analysis, a partial sample containing the same number of cells was pretreated with a proteasome inhibitor, epoxomicin, at a concentration of 10 μM for 30 minutes. The chemotrypsin-like activity was measured by the same process and the result was used as a background signal for analysis. The luminescence was measured with a GloMax 20/20 Luminometer (Promega).

For another test, the system named is HSP60. Kind of test: Immunoblotting analysis of HSP60 in C2C12 myotubes. The test is classed as cell-based. Particulars: T1AM-treated group vs control. Here is the method: as §1, §5, §6
The subject of a further test is S6K. Kind of test: Immunoblotting analysis of p-S6K and S6K in C2C12 myotubes. It counts as cell-based. Here is the method:
as §1, §5, §6

Another test concerns FoxO3. Kind of test: Immunoblotting analysis of p-FoxO3 and FoxO3 in C2C12 myotubes. The test is classed as cell-based. Particulars: T1AM-treated group vs control. Here is the method:
as §1, §2, §3, §4

Another test has as its system MuRF1. Kind of test: Immunoblotting analysis of MuRF1 in C2C12 myotubes. The test is classed as cell-based. To be noted: T1AM-treated group vs control. Here is the method:
as §1, §5, §6

The subject of a further test is C2C12 myotubes. Kind of test: Measurement of diameter (size) of C2C12 myotubes. The test is classed as cell-based. Particulars: 75 μM of T1AM for 6 hours. The method, then:
as §1
To verify the effect of T1AM on the size of C2C12 myotubes, the cells were fixed with 4% paraformaldehyde and photographed at 200× magnification on an Axiovert 200 optical microscope. For analysis, the cells were divided into 9 fractions in order to randomly select the cells. The diameter of each myotube was measured using Image J software (NIH, Frederick, Md., USA).
To determine whether T1AM induced muscular atrophy in C2C12 myotubes, cells were photographed under a phase contrast microscope (FIG. 1A) and the diameter was measured at 200× magnification (FIG. 1B).

Another test deals with MAFbx. Kind of test: Immunoblotting analysis of MAFbx in C2C12 myotubes. To be noted: T1AM treatment vs control. It counts as cell-based. Here is the method:
as §1, §5, §6

The test system of the next test is Akt1. Kind of test: Immunoblotting analysis of p-Akt1 and Akt1 in C2C12 myotubes. It counts as cell-based. Particulars: T1AM-treated group vs control. Here is the method:
as §1, §2, §7

Another test has as its system αB-crystallin. Kind of test: Immunoblotting analysis of αB-crystallin in C2C12 myotubes. It counts as cell-based. To be noted: T1AM-treated group vs control. The method, then:
as §1, §5, §6

SMILES strings stand for the structures.

With `NCCc1ccc(Oc2ccc(O)cc2)c(I)c1` [T1AM, 3-iodothyronamine], in the test on FoxO1, the “expression ratio of p-FoxO1/FoxO1, lowered” value is 0.66 times; the “phosphorylation level of FoxO1 between the two groups” value was “similar”; the “total expression of FoxO1, higher than control” value turned out to be 2.5 times. The “expression level of HSP72, down-regulated compared to the control” value in test [1] worked out at 0.89 times. In addition, in the test on AMPK, the “AMPK phosphorylation, increase compared to the control” value was 2.7 times; the “expression ratio of p-AMPK/AMPK, higher than control” value is recorded as 2.0 times; the “total expression levels of AMPK, between the two groups” value is reported as “similar”. Besides, the “chymotrypsin-like activity of proteasome, higher than control” value in the test with 26S proteasome turned out to be 1.5 times. The “difference in HSP60 expression between the two groups” value in the test on HSP60 is “not statistically significant”. For the same molecule, the p-S6K level entry in the test on S6K (T1AM treatment vs control) is listed as “lowered”. Further, the “expression ratio of p-S6K/S6K, lower than control” value with S6K (T1AM-treated group vs control) was 0.53 times. Moreover, in the test with FoxO3, the “expression ratio of p-FoxO3/FoxO3, lower than control” value is recorded as 0.39 times; the “p-FoxO3 level, lowered” value was found to be 0.58 times; the “total expression of FoxO3 between T1AM-treated group and control” value is given as “not different”. For the same molecule, the “expression of MuRF1, higher than control” value with MuRF1 turned out to be 1.8 times. Moreover, in the test with C2C12 myotubes, the “size of myotube, decrease compared to vehicle control” value is 0.13 times. The “expression of MAFbx” value in the test with MAFbx is recorded as “not affected”. For the same molecule, in the test on Akt1, the “expression ratio of p-Akt1/Akt1, lower than control” value came to 0.45 times; the “non-phosphorylation level of Akt1 between the two groups” value is reported as “similar”; the “phosphorylation level of Akt1 compared to the control” value is “significantly down-regulated”. In the test on αB-crystallin, the “expression level of αB-crystallin, down-regulated compared to the control” value is reported as 0.63 times.
